Data taken from patent US9802960B2 (MILLENNIUM PHARMACEUTICALS, INC., priority 2014, dated 2017).

biological target: Human VPS34 (Homo sapiens (Human), UniProt Q8NEB9); experiment: Human VPS34 enzyme assay (Adapta TR-FRET); format: biochemical; conditions: IC50 range class
Sequence (Q8NEB9 whole entry): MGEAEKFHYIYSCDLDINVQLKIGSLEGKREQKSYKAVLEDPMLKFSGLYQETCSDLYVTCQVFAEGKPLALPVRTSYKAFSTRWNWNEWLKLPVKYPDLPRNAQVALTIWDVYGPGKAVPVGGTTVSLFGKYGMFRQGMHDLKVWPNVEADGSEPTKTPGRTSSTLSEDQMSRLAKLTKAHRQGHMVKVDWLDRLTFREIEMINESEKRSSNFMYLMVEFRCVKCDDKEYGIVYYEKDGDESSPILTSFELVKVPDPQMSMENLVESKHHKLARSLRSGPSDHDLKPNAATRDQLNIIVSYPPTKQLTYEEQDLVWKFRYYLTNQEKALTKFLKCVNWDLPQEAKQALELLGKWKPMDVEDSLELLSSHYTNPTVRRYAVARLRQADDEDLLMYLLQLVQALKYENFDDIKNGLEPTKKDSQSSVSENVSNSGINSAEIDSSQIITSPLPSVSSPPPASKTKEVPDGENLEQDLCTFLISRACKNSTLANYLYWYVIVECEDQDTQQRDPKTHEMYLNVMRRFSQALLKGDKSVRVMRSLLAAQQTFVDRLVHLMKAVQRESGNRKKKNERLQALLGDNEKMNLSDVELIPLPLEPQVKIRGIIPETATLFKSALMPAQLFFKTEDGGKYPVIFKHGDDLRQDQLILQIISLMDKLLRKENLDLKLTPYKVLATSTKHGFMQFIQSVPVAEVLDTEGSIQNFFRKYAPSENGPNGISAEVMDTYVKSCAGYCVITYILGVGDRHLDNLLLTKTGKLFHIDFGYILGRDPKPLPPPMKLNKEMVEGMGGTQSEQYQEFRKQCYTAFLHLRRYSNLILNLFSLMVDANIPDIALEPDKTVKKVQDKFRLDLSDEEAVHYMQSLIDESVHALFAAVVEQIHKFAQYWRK

SMILES	IC50
Cc1nccc(Nc2cc(-c3cnc(C)c(NS(=O)(=O)c4ccc(F)cc4F)c3)ccn2)n1 [Compound I-291, 2,4-difluoro-N-{6-methyl-2′-[(2-methylpyrimidin-4-yl)amino]-3,4′-bipyridin-5-yl}benzenesulfonamide]	< 10 nM

same assay, conditions: compound concentration 1.11 μM

SMILES	Percent Inhibition
CC(=O)Nc1cc(-c2cnc(Cl)c(NS(=O)(=O)c3cn(C)nc3C(F)(F)F)c2C)ccn1 [Compound I-493, N-[6-chloro-4-methyl-5-({[1-methyl-3-(trifluoromethyl)-1H-pyrazol-4-yl]sulfonyl}amino)-3,4′-bipyridin-2′-yl]acetamide]	99%

same assay, conditions: compound concentration 1.11 μM; read-out: Percent Inhibition

SMILES	inhibition at 1.11 µM
CC(=O)Nc1cc(-c2cnc(N)c(S(=O)(=O)NCC3CCCCC3)c2)ccn1 [Compound I-183, N-{6-amino-5-[(cyclohexylmethyl)sulfamoyl]-3,4′-bipyridin-2′-yl}acetamide]	> 99%
Cc1nccc(Nc2cc(-c3cnc(C)c(NS(=O)(=O)c4ccc(F)cc4F)c3)ccn2)n1 [Compound I-291, 2,4-difluoro-N-{6-methyl-2′-[(2-methylpyrimidin-4-yl)amino]-3,4′-bipyridin-5-yl}benzenesulfonamide]	95%
CC(=O)Nc1cc(-c2cnc3c(c2)NS(=O)(=O)N3CC2CC2)ccn1 [Compound I-68, N-{4-[3-(cyclopropylmethyl)-2,2-dioxido-1,3-dihydro[1,2,5]thiadiazole[3,4-b]pyridin-6-yl]pyridin-2-yl}acetamide]	98%
Cc1c(-c2ccnc(Nc3ccncn3)c2)cnc(Cl)c1NS(=O)(=O)c1ccccc1 [Compound I-309, N-[6-chloro-4-methyl-2′-(pyrimidin-4-ylamino)-3,4′-bipyridin-5-yl]benzenesulfonamide]	99%
COc1ncc(-c2ccnc(NC(C)=O)c2)c(C)c1S(=O)(=O)NC(C)(C)C [Compound I-442, N-[5-(tert-butylsulfamoyl)-6-methoxy-4-methyl-3,4′-bipyridin-2′-yl]acetamide]	> 99%
COC(=O)Nc1cc(-c2cnc3ccn(CC4CC4)c3c2)ccn1 [Compound I-42, Methyl {4-[1-(cyclopropylmethyl)-1H-pyrrolo[3,2-b]pyridin-6-yl]pyridin-2-yl}carbamate]	> 99%
CC(=O)Nc1cc(-c2cnc(C)c(N(C)C(=O)c3ccc(F)cc3F)c2)ccn1 [Compound I-398, N-(2′-acetamido-6-methyl-3,4′-bipyridin-5-yl)-2,4-difluoro-N-methylbenzamide]	93%
CC(=O)Nc1cc(-c2cnc3c(c2)c(S(=O)(=O)N2CCCC2)cn3C)ccn1 [Compound I-151, N-{4-[1-methyl-3-(pyrrolidin-1-ylsulfonyl)-1H-pyrrolo[2,3-b]pyridin-5-yl]pyridin-2-yl}acetamide]	> 99%
COC(=O)Nc1cc(-c2cnc(N)c(C(=O)N(C)C)c2)ccn1 [Compound I-55, methyl [6-amino-5-(dimethylcarbamoyl)-3,4′-bipyridin-2′-yl]carbamate]	> 99%
CC(=O)Nc1cc(-c2cnc(N)c(S(=O)(=O)Nc3ccc(Cl)cc3)c2)ccn1 [Compound I-207, N-{6-amino-5-[(4-chlorophenyl)sulfamoyl]-3,4′-bipyridin-2′-yl}acetamide]	> 99%
CC(=O)Nc1cc(-c2cnc(C)c(NS(=O)(=O)N(C)C)c2)ccn1 [Compound I-32, N-{5-[(dimethylsulfamoyl)amino]-6-methyl-3,4′-bipyridin-2′-yl}acetamide]	> 99%
CC(=O)Nc1cc(-c2cnc(Cl)c(NS(=O)(=O)c3ccccc3Cl)c2C)ccn1 [Compound I-240, N-(6-chloro-5-{[(2-chlorophenyl)sulfonyl]amino}-4-methyl-3,4′-bipyridin-2′-yl)acetamide]	> 99%
CC(=O)Nc1cc(-c2cnc(C)c(NS(=O)(=O)C3CC3)c2)ccn1 [Compound I-114, N-{5-[(cyclopropylsulfonyl)amino]-6-methyl-3,4′-bipyridin-2′-yl}acetamide]	> 99%
Cc1ncc(-c2ccnc(Nc3ccccn3)c2)cc1NS(=O)(=O)c1ccc(F)cc1F [Compound I-297, 2,4-difluoro-N-[6-methyl-2′-(pyridin-2-ylamino)-3,4′-bipyridin-5-yl]benzenesulfonamide]	> 99%
CC(=O)Nc1cc(-c2cnc(Cl)c(NS(=O)(=O)c3ccc(C#N)cc3Cl)c2C)ccn1 [Compound I-362, N-(6-chloro-5-{[(2-chloro-4-cyanophenyl)sulfonyl]amino}-4-methyl-3,4′-bipyridin-2′-yl)acetamide]	95%
CC(=O)Nc1cc(-c2cnc(C)c(NS(C)(=O)=O)c2)ccn1 [Compound I-167, N-{6-methyl-5-[(methylsulfonyl)amino]-3,4′-bipyridin-2′-yl}acetamide]	> 99%
CC(=O)Nc1cc(-c2cncc(N(CC3CC3)S(C)(=O)=O)c2)ccn1 [Compound I-202, N-{5-[(cyclopropylmethyl)(methylsulfonyl)amino]-3,4′-bipyridin-2′-yl}acetamide]	> 99%
CC(=O)Nc1cc(-c2cnc(N)c(N3CCCNS3(=O)=O)c2)ccn1 [Compound I-490, N-[6-amino-5-(1,1-dioxido-1,2,6-thiadiazinan-2-yl)-3,4′-bipyridin-2′-yl]acetamide]	> 99%
CC(=O)Nc1cc(-c2cnc(Cl)c(NS(=O)(=O)c3ccc(C4CC4)cc3F)c2C)ccn1 [Compound I-335, N-(6-chloro-5-{[(4-cyclopropyl-2-fluorophenyl)sulfonyl]amino}-4-methyl-3,4′-bipyridin-2′-yl)acetamide]	92%
CC(=O)Nc1cc(-c2cncc(NS(=O)(=O)c3ccc(F)cc3F)c2)ccn1 [Compound I-12, N-(5-{[(2,4-difluorophenyl)sulfonyl]amino}-3,4′-bipyridin-2′-yl)acetamide]	> 99%
CC(=O)Nc1cc(-c2cnc3cn(S(=O)(=O)C4CC4)nc3c2)ccn1 [Compound I-105, N-{4-[2-(cyclopropylsulfonyl)-2H-pyrazolo[4,3-b]pyridin-6-yl]pyridin-2-yl}acetamide]	> 99%
CC(=O)Nc1cc(-c2cncc(S(=O)(=O)N(C)c3ccccc3)c2)ccn1 [Compound I-365, N-{5-[methyl(phenyl)sulfamoyl]-3,4′-bipyridin-2′-yl}acetamide]	> 99%
CC(=O)Nc1cc(-c2cnc(N)c(C(=O)N3CCC3)c2)ccn1 [Compound I-200, N-[6-amino-5-(azetidin-1-ylcarbonyl)-3,4′-bipyridin-2′-yl]acetamide]	> 99%
CC(=O)Nc1cc(-c2cncc(S(=O)(=O)N3CCC(F)(F)C3)c2)ccn1 [Compound I-118, N-{5-[(3,3-difluoropyrrolidin-1-yl)sulfonyl]-3,4′-bipyridin-2′-yl}acetamide]	> 99%
CC(=O)Nc1cc(-c2cnc(C)c(S(=O)(=O)NC34CC(C3)C4)c2)ccn1 [Compound I-418, N-[5-(bicyclo[1.1.1]pent-1-ylsulfamoyl)-6-methyl-3,4′-bipyridin-2′-yl]acetamide]	> 99%
CC(=O)Nc1cc(-c2cncc(S(=O)(=O)N(C)C)c2)ccn1 [Compound I-137, N-[5-(dimethylsulfamoyl)-3,4′-bipyridin-2′-yl]acetamide]	> 99%
CC(=O)Nc1cc(-c2cnc(N)c(C(=O)N3CCc4ccccc43)c2)ccn1 [Compound I-71, N-[6-amino-5-(2,3-dihydro-1H-indol-1-ylcarbonyl)-3,4′-bipyridin-2′-yl]acetamide]	> 99%
CC(=O)Nc1cc(-c2cnc(N)c(C(=O)N3CCCCC3)c2)ccn1 [Compound I-10, N-[6-amino-5-(piperidin-1-ylcarbonyl)-3,4′-bipyridin-2′-yl]acetamide]	> 99%
